SMILES strings stand for the structures.

This experiment has as its target human P2X7 (Homo sapiens (Human), UniProt Q99572). The experiment in a line: P2X7 antagonism in human PBMCs (IL-1β release after LPS + Bz-ATP, ELISA). The format is cell-based. As to conditions: for PBMC 1 μM (% control): test compound 1 μM.
Where [1] appears, read: human PBMCs, test compound 10 μM.
Setting [2] is: test compound 10 μM, LPS 30 ng/ml + 0.5 mM Bz-ATP.
[3] abbreviates: 10 μM test compound, human PBMCs, LPS + Bz-ATP.

human P2X7, sequence (Q99572 whole entry): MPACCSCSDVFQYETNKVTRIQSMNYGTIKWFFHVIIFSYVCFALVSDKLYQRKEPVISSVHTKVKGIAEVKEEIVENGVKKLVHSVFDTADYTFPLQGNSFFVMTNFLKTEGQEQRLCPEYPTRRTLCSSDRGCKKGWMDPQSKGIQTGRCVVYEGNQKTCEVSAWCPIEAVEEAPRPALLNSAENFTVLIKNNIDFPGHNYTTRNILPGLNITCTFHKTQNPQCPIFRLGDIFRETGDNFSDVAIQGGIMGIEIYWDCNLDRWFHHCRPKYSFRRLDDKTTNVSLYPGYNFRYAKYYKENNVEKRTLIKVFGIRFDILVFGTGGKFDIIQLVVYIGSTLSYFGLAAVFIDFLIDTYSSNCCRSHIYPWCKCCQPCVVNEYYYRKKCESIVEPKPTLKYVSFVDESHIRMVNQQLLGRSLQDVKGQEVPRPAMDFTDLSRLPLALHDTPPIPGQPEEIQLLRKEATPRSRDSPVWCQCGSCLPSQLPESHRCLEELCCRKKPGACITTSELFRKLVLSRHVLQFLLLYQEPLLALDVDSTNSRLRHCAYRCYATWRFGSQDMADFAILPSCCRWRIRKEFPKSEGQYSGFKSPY

Turning to `O=C(c1cccc(Cl)c1Cl)N1CCc2c(-c3ccncc3)n[nH]c2C1` [Example 115, 6-[(2,3-Dichlorophenyl)carbonyl]-3-pyridin-4-yl-4,5,6,7-tetrahydro-2H-pyrazolo[3,4-c]pyridine], the “PBMC 10 μM (% control)” value under setting [1] is −3.3 % control.
Same read-out and setting: the figure for `Cn1ccc(-n2nnc3c2CCN(C(=O)c2cccc(C(F)(F)F)c2Cl)C3)n1` [Example 127, (2-Chloro-3-(trifluoromethyl)phenyl)(1-(1-methyl-1H-pyrazol-3-yl)-6,7-dihydro-1H-[1,2,3]triazolo[4,5-c]pyridin-5(4H)-yl)methanone] is 9.2 % control.
The same measure, in the same setting: the figure for `O=C(c1cccc(Cl)c1Cl)N1CCc2c(ncn2-c2ccccn2)C1` [Example 4, (2,3-Dichlorophenyl)(1-(pyridin-2-yl)-6,7-dihydro-1H-imidazo[4,5-c]pyridin-5(4H)-yl)methanone] is −3.7 % control; for `C[C@H]1c2nnn(-c3cc(F)ccn3)c2CCN1C(=O)c1cccc(C(F)(F)F)c1Cl` (single isomer, unassigned) [Example 149, (S*)-(2-Chloro-3-(trifluoromethyl)phenyl)(1-(4-fluoropyridin-2-yl)-4-methyl-6,7-dihydro-1H-[1,2,3]triazolo[4,5-c]pyridin-5(4H)-yl)methanone] it is 3.5 % control.
Take `Cc1ccnc(-n2nnc3c2CCN(C(=O)c2cccc(C(F)(F)F)c2Cl)[C@@H]3C)c1` (single isomer, unassigned) [Example 185, (R*)-(2-chloro-3-(trifluoromethyl)phenyl)(4-methyl-1-(4-methylpyridin-2-yl)-6,7-dihydro-1H-[1,2,3]triazolo[4,5-c]pyridin-5(4H)-yl)methanone]: the “PBMC 10 μM (% control)” value is −3.7 % control under setting [1] and −3.7 % control under setting [2].
For `Cc1c(C(=O)N2CCc3c(nnn3-c3ccccn3)C2)ccc(F)c1F` [Example 132, (3,4-Difluoro-2-methylphenyl)(1-(pyridin-2-yl)-6,7-dihydro-1H-[1,2,3]triazolo-[4,5-c]pyridin-5(4H)-yl)methanone], the “PBMC 10 μM (% control)” value under setting [1] turned out to be 3.8 % control.
Same read-out and setting: the figure for `COc1ccnc(-n2nnc3c2CCN(C(=O)c2cccc(C(F)(F)F)c2Cl)C3)c1` [Example 136, (2-Chloro-3-(trifluoromethyl)phenyl)(1-(4-methoxypyridin-2-yl)-6,7-dihydro-1H-[1,2,3]triazolo[4,5-c]pyridin-5(4H)-yl)methanone] is 5.3 % control.
On the same count and under the same terms, the figure for `Cc1cccc(-n2nnc3c2CCN(C(=O)c2cccc(C(F)(F)F)c2F)[C@@H]3C)n1` (single isomer, unassigned) [Example 386, (R*)-(2-fluoro-3-(trifluoromethyl)phenyl)(4-methyl-1-(6-methylpyridin-2-yl)-6,7-dihydro-1H-[1,2,3]triazolo[4,5-c]pyridin-5(4H)-yl)methanone] is 107.5 % control; for `Cc1c(C(=O)N2Cc3nnn(-c4ncc(F)cn4)c3CC2C)cccc1C(F)(F)F` (stereo not drawn) [Example 206, 1-(5-Fluoropyrimidin-2-yl)-6-methyl-5-{[2-methyl-3-(trifluoromethyl)phenyl]carbonyl}-4,5,6,7-tetrahydro-1H-[1,2,3]triazolo[4,5-c]pyridine] it is −1.0 % control.
The same measure, in the same setting: the figure for `C[C@@H]1c2nnn(-c3ncc(F)cn3)c2CCN1C(=O)c1cccc(C(F)(F)F)c1Cl` [Example 158, (R)-(2-chloro-3-(trifluoromethyl)phenyl)(1-(5-fluoropyrimidin-2-yl)-4-methyl-6,7-dihydro-1H-[1,2,3]triazolo[4,5-c]pyridin-5(4H)-yl)methanone] is 1.1 % control; for `C[C@@H]1Cc2c(nnn2-c2ccn[nH]2)CN1C(=O)c1cccc(C(F)(F)F)c1Cl` (single isomer, unassigned) [Example 350, (R*)-(2-chloro-3-(trifluoromethyl)phenyl)(6-methyl-1-(1H-pyrazol-5-yl)-6,7-dihydro-1H-[1,2,3]triazolo[4,5-c]pyridin-5(4H)-yl)methanone] it is 16.2 % control.
In the case of `Cc1cc(C)nc(-n2nnc3c2CCN(C(=O)c2cccc(C(F)(F)F)c2Cl)[C@@H]3C)n1` (single isomer, unassigned) [Example 181, (R*)-(2-chloro-3-(trifluoromethyl)phenyl)(1-(4,6-dimethylpyrimidin-2-yl)-4-methyl-6,7-dihydro-1H-[1,2,3]triazolo[4,5-c]pyridin-5(4H)-yl)methanone], the “PBMC 10 μM (% control)” value is −0.1 % control under setting [1] and −0.1 % control under setting [2].
In the case of `Cc1cccc(-n2nnc3c2CCN(C(=O)c2cccc(Cl)c2Cl)[C@H]3C)n1` (single isomer, unassigned) [Example 390, (S*)-(2,3-dichlorophenyl)(4-methyl-1-(6-methylpyridin-2-yl)-6,7-dihydro-1H-[1,2,3]triazolo[4,5-c]pyridin-5(4H)-yl)methanone], the “PBMC 10 μM (% control)” value under setting [1] was 6.5 % control.
Same read-out and setting: the figure for `O=C(c1ccc(Cl)cc1F)N1CCc2c(nnn2-c2cnccn2)C1` [Example 272, (4-chloro-2-fluorophenyl)(1-(pyrazin-2-yl)-6,7-dihydro-1H-[1,2,3]triazolo[4,5-c]pyridin-5(4H)-yl)methanone] is −7.6 % control; for `C[C@@H]1Cc2c(nnn2-c2cc(F)ccn2)CN1C(=O)c1cccc(C(F)(F)F)c1Cl` (single isomer, unassigned) [Example 198, (6R*)-5-{[2-Chloro-3-(trifluoromethyl)phenyl]carbonyl}-1-(4-fluoropyridin-2-yl)-6-methyl-4,5,6,7-tetrahydro-1H-[1,2,3]triazolo[4,5-c]pyridine] it is 1.3 % control.
`Cc1c(C(=O)N2CCc3c(nnn3-c3ncccn3)[C@H]2C)cccc1C(F)(F)F` (single isomer, unassigned) [Example 188, (R*)-(4-methyl-1-(pyrimidin-2-yl)-6,7-dihydro-1H-[1,2,3]triazolo[4,5-c]pyridin-5(4H)-yl)(2-methyl-3-(trifluoromethyl)phenyl)methanone]: the “PBMC 10 μM (% control)” value reads like this: under setting [1], −0.7 % control; under setting [2], −0.7 % control.
Consider `CC1c2nnn(-c3ncc(F)cn3)c2CCN1C(=O)c1cccc(Cl)c1Cl` (stereo not drawn) [Example 174, (2,3-Dichlorophenyl)(1-(5-fluoropyrimidin-2-yl)-4-methyl-6,7-dihydro-1H-[1,2,3]triazolo[4,5-c]pyridin-5(4H)-yl)methanone], for which the “PBMC 10 μM (% control)” value under setting [1] came out at 4.2 % control.
On to `C[C@@H]1Cc2c(nnn2-c2ncc(F)cn2)CN1C(=O)c1ccc(F)c(Cl)c1Cl` (single isomer, unassigned) [Example 214, (6R*)-5-[(2,3-Dichloro-4-fluorophenyl)carbonyl]-1-(5-fluoropyrimidin-2-yl)-6-methyl-4,5,6,7-tetrahydro-1H-[1,2,3]triazolo[4,5-c]pyridine], for which the “PBMC 10 μM (% control)” value under setting [1] amounted to 8.2 % control.
On the same count and under the same terms, the figure for `Cc1cc(-n2nnc3c2CCN(C(=O)c2ccc(Cl)c(C(F)(F)F)c2)[C@H]3C)ncc1F` (single isomer, unassigned) [Example 366, (S*)-(4-chloro-3-(trifluoromethyl)phenyl)(1-(5-fluoro-4-methylpyridin-2-yl)-4-methyl-6,7-dihydro-1H-[1,2,3]triazolo[4,5-c]pyridin-5(4H)-yl)methanone] is 2.0 % control.
As for `Cn1nc2c(c1-c1ccccn1)CCN(C(=O)c1cccc(C(F)(F)F)c1Cl)C2` [Example 92, 6-{[2-Chloro-3-(trifluoromethyl)phenyl]carbonyl}-2-methyl-3-pyridin-2-yl-4,5,6,7-tetrahydro-2H-pyrazolo[3,4-c]pyridine], the “PBMC 1 μM (% control)” value (human PBMCs) is 2.7 % control.
In the case of `Cc1cc(C)nc(-n2nnc3c2CCN(C(=O)c2cccc(Cl)c2Cl)C3C)n1` (stereo not drawn) [Example 179, (2,3-dichlorophenyl)(1-(4,6-dimethylpyrimidin-2-yl)-4-methyl-6,7-dihydro-1H-[1,2,3]triazolo[4,5-c]pyridin-5(4H)-yl)methanone], under setting [1], the “PBMC 10 μM (% control)” value is given as −4.3 % control.
As to `Cc1nc2c(n1-c1ccccc1)CCN(C(=O)c1cccc(Cl)c1Cl)C2` [Example 331, (2,3-dichlorophenyl)(2-methyl-1-phenyl-6,7-dihydro-1H-imidazo[4,5-c]pyridin-5(4H)-yl)methanone], the “PBMC 10 μM (% control)” value under setting [1] is on record as −11.0 % control.
Take `CC1c2ncn(-c3ccc(F)cc3)c2CCN1C(=O)c1cccc(C(F)(F)F)c1Cl` (stereo not drawn) [Example 18, (2-Chloro-3-(trifluoromethyl)phenyl)(1-(4-fluorophenyl)-4-methyl-6,7-dihydro-1H-imidazo[4,5-c]pyridin-5(4H)-yl)methanone]: the “PBMC 1 μM (% control)” value (human PBMCs) amounted to 5.3 % control.
For `Cc1cc(C)nc(-n2nnc3c2CCN(C(=O)c2cccc(Cl)c2Cl)C3C)c1` (stereo not drawn) [Example 231, (2,3-dichlorophenyl)(1-(4,6-dimethylpyridin-2-yl)-4-methyl-6,7-dihydro-1H-[1,2,3]triazolo[4,5-c]pyridin-5(4H)-yl)methanone], the “PBMC 10 μM (% control)” value under setting [1] is given as −4.8 % control.
As to `CC(C)n1ccc(-n2nnc3c2C[C@H](C)N(C(=O)c2ccnc(C(F)(F)F)c2F)C3)n1` [Example 418, (S)-(3-fluoro-2-(trifluoromethyl)pyridin-4-yl)(1-(1-isopropyl-1H-pyrazol-3-yl)-6-methyl-6,7-dihydro-1H-[1,2,3]triazolo[4,5-c]pyridin-5(4H)-yl)methanone], the “PBMC 10 μM (% control)” value under setting [3] worked out at 97.6 % control.
For `CC1Cc2c(nnn2-c2ccccn2)CN1C(=O)c1cccc(Cl)c1Cl` (stereo not drawn) [Example 120, 5-[(2,3-Dichlorophenyl)carbonyl]-6-methyl-1-pyridin-2-yl-4,5,6,7-tetrahydro-1H-[1,2,3]triazolo[4,5-c]pyridine], the “PBMC 10 μM (% control)” value under setting [1] is −3.8 % control.
Consider `C[C@H]1Cc2c(nnn2-c2ccsc2)CN1C(=O)c1cccc(C(F)(F)F)c1Cl` [Example 420, (S)-(2-chloro-3-(trifluoromethyl)phenyl)(6-methyl-1-(thiophen-3-yl)-6,7-dihydro-1H-[1,2,3]triazolo[4,5-c]pyridin-5(4H)-yl)methanone], for which the “PBMC 10 μM (% control)” value under setting [3] came to 0.0 % control.

The values above are taken from patent publication US10112937B2, “P2X7 modulators and methods of use” (Janssen Pharmaceutica NV, priority 2013, dated 2018).
